Some results are limits rather than exact numbers.

The IC50 is the concentration at which inhibition is half-maximal.

Holding throughout (format): protein-complex assay
One assay has as its target Integrin alpha-V/beta-3 (Homo sapiens, UniProt P05106+P06756). The assay is described as follows: Inhibition of vitronectin binding to human alphavbeta3 integrin receptor after 1 hr by competitive solid-phase binding ELISA. On the technique in general: In an ELISA, binding on a coated surface is turned into a signal by an enzyme label.
For another assay, the target named is Integrin alpha-5/beta-1 (Homo sapiens, UniProt P05556+P08648). The assay is described as follows: Inhibition of fibronectin binding to human alpha5beta1 integrin receptor after 1 hr by competitive solid-phase binding ELISA.
In assay [1] the target is Integrin alpha-IIb/beta-3 (Homo sapiens, UniProt P05106+P08514). In words: Inhibition of fibrinogen binding to alpha2bbeta3 integrin receptor (unknown origin) after 1 hr by competitive solid-phase binding ELISA.
For another assay, the target named is Integrin alpha-V/beta-5 (Homo sapiens, UniProt P06756+P18084). In words: Inhibition of vitronectin binding to alphavbeta5 integrin receptor (unknown origin) after 1 hr by competitive solid-phase binding ELISA.
A further assay addresses Integrin alpha-V/beta-6 (Homo sapiens, UniProt P06756+P18564). The assay is described as follows: Inhibition of LAP binding to human alphavbeta6 integrin receptor after 1 hr by competitive solid-phase binding ELISA.

For the compound `Cc1cccc(NCCCOc2ccc(C[C@@H](CC(=O)O)NC(=O)c3ccccc3)cc2)n1`, the half-inhibitory concentration (IC50) at Integrin alpha-V/beta-3 was 110 nM; on Integrin alpha-5/beta-1, > 10000 nM.

On to `COc1ccnc(NCCCOc2ccc(C[C@@H](CC(=O)O)NC(=O)c3ccc(OC(C)C)cc3)cc2)c1`, for which the IC50 on Integrin alpha-V/beta-3 was 0.86 nM; on Integrin alpha-5/beta-1 it was 126 nM; in assay [1], > 10 µM; on Integrin alpha-V/beta-5 it was 227 nM; on Integrin alpha-V/beta-6 it was 20 nM.

Consider `COc1ccnc(NCCCOc2ccc(C[C@@H](CC(=O)O)NS(=O)(=O)c3ccc(C)cc3)cc2)c1`, for which the IC50 at Integrin alpha-V/beta-3 is 0.65 nM; on Integrin alpha-5/beta-1, 108 nM; in assay [1], > 10 µM.

For `COc1ccnc(NCCCOc2ccc(C[C@@H](CC(=O)NO)NC(=O)c3ccc(OC(C)C)cc3)cc2)c1`, the IC50 at Integrin alpha-V/beta-3 is 638 nM; at Integrin alpha-5/beta-1, > 10000 nM.

As for `COc1ccnc(NCCCOc2ccc(C[C@@H](CC(=O)NO)NS(=O)(=O)c3ccc(C)cc3)cc2)c1`, the IC50 is 75.1 nM at Integrin alpha-V/beta-3 and > 10000 nM on Integrin alpha-5/beta-1.

Turning to `COc1ccnc(NCCCOc2ccc(C[C@@H](CC(=O)O)NC(=O)c3ccc(F)cc3)cc2)c1`, the figures for the concentration for half-maximal inhibition (IC50) on Integrin alpha-V/beta-3 and on Integrin alpha-5/beta-1 were 1.6 nM and 64.2 nM, respectively.

Source of the values: ChEMBL document CHEMBL3233001, “Pharmacophoric modifications lead to superpotent αvβ3 integrin ligands with suppressed α5β1 activity” (J Med Chem, 2014).
